#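 Briefly, cells in 96-well plates were exposed to five compound concentrations for 48 h, and endpoints were estimated by linear interpolation. GI50 marks 50% less growth. TGI: total growth inhibition.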
# Assays:
# Assay in all cases: growth of human tumour cells (NCI), 48 h
# [1] = system: 786-0 renal
# [2] = system: A549 NSCLC
# [3] = system: ACHN renal
# [4] = system: BT-549 breast
# [5] = system: CAKI-1 renal
# [6] = system: CCRF-CEM leukemia
# [7] = system: COLO 205 colon
# [8] = system: EKVX NSCLC
# [9] = system: HCC-2998 colon
# [10] = system: HCT-116 colon
# [11] = system: HCT-15 colon
# [12] = system: HL-60(TB) leukemia
# [13] = system: HOP-92 NSCLC
# [14] = system: HT29 colon
# [15] = system: IGROV1 ovarian
# [16] = system: K-562 leukemia
# [17] = system: KM12 colon
# [18] = system: LOX IMVI melanoma
# [19] = system: MCF7 breast
# [20] = system: MDA-MB-231 breast
# [21] = system: MDA-MB-435
# [22] = system: MOLT-4 leukemia
# [23] = system: NCI-H23 lung
# [24] = system: NCI-H460 lung
# [25] = system: NCI-H522 lung
# [26] = system: NCI/ADR-RES ovarian
# [27] = system: OVCAR-3 ovarian
# [28] = system: OVCAR-4 ovarian
# [29] = system: OVCAR-5 ovarian
# [30] = system: OVCAR-8 ovarian
# [31] = system: PC-3 prostate
# [32] = system: RPMI-8226 leukemia
# [33] = system: RXF 393 renal
# [34] = system: SF-268 CNS
# [35] = system: SF-295 CNS
# [36] = system: SF-539 CNS
# [37] = system: SK-MEL-2 melanoma
# [38] = system: SK-MEL-28 melanoma
# [39] = system: SK-MEL-5 melanoma
# [40] = system: SK-OV-3 ovarian
# [41] = system: SN12C renal
# [42] = system: SNB-19 CNS
# [43] = system: SNB-75 CNS
# [44] = system: SR leukemia
# [45] = system: SW-620 colon
# [46] = system: T-47D breast
# [47] = system: U251 CNS
# [48] = system: UACC-257 melanoma
# [49] = system: UACC-62 melanoma
# [50] = system: UO-31 renal
# [51] = system: A498 renal
# [52] = system: DU-145 prostate
# [53] = system: HOP-62 NSCLC
# [54] = system: HS 578T breast
# [55] = system: M14 melanoma
# [56] = system: MALME-3M melanoma
# [57] = system: NCI-H226 lung
# [58] = system: TK-10 renal
compound,measurement,setting,value
CC(=O)CCC[C@@H](C)[C@@H]1O[C@H]([C@@]2(C)CCC(=O)O2)CC2[C@H]1OC(=O)C21CC1 (stereo not given in full),GI50,[1],> 100 µM
same,TGI,[1],> 100 µM
same,GI50,[2],> 100 µM
same,TGI,[2],> 100 µM
same,GI50,[3],> 100 µM
same,TGI,[3],> 100 µM
same,GI50,[4],25.5 µM
same,TGI,[4],63.4 µM
same,GI50,[5],61.2 µM
same,TGI,[5],> 100 µM
same,GI50,[6],> 100 µM
same,TGI,[6],> 100 µM
same,GI50,[7],> 100 µM
same,TGI,[7],> 100 µM
same,GI50,[8],8.03 µM
same,TGI,[8],49.5 µM
same,GI50,[9],77.2 µM
same,TGI,[9],> 100 µM
same,GI50,[10],> 100 µM
same,TGI,[10],> 100 µM
same,GI50,[11],> 100 µM
same,TGI,[11],> 100 µM
same,GI50,[12],> 100 µM
same,TGI,[12],> 100 µM
same,GI50,[13],> 100 µM
same,TGI,[13],> 100 µM
same,GI50,[14],> 100 µM
same,TGI,[14],> 100 µM
same,GI50,[15],55 µM
same,TGI,[15],> 100 µM
same,GI50,[16],> 100 µM
same,TGI,[16],> 100 µM
same,GI50,[17],> 100 µM
same,TGI,[17],> 100 µM
same,GI50,[18],77.1 µM
same,TGI,[18],> 100 µM
same,GI50,[19],22.3 µM
same,TGI,[19],> 100 µM
same,GI50,[20],> 100 µM
same,TGI,[20],> 100 µM
same,GI50,[21],> 100 µM
same,TGI,[21],> 100 µM
same,GI50,[22],75.5 µM
same,TGI,[22],> 100 µM
same,GI50,[23],15.3 µM
same,TGI,[23],59.6 µM
same,GI50,[24],39.7 µM
same,TGI,[24],> 100 µM
same,GI50,[25],> 100 µM
same,TGI,[25],> 100 µM
same,GI50,[26],71.3 µM
same,TGI,[26],> 100 µM
same,GI50,[27],> 100 µM
same,TGI,[27],> 100 µM
same,GI50,[28],> 100 µM
same,TGI,[28],> 100 µM
same,GI50,[29],> 100 µM
same,TGI,[29],> 100 µM
same,GI50,[30],> 100 µM
same,TGI,[30],> 100 µM
same,GI50,[31],52.5 µM
same,TGI,[31],> 100 µM
same,GI50,[32],> 100 µM
same,TGI,[32],> 100 µM
same,GI50,[33],> 100 µM
same,TGI,[33],> 100 µM
same,GI50,[34],> 100 µM
same,TGI,[34],> 100 µM
same,GI50,[35],61.6 µM
same,TGI,[35],> 100 µM
same,GI50,[36],60.6 µM
same,TGI,[36],> 100 µM
same,GI50,[37],> 100 µM
same,TGI,[37],> 100 µM
same,GI50,[38],> 100 µM
same,TGI,[38],> 100 µM
same,GI50,[39],21.7 µM
same,TGI,[39],92.4 µM
same,GI50,[40],> 100 µM
same,TGI,[40],> 100 µM
same,GI50,[41],> 100 µM
same,TGI,[41],> 100 µM
same,GI50,[42],> 100 µM
same,TGI,[42],> 100 µM
same,GI50,[43],> 100 µM
same,TGI,[43],> 100 µM
same,GI50,[44],29.4 µM
same,TGI,[44],> 100 µM
same,GI50,[45],> 100 µM
same,TGI,[45],> 100 µM
same,GI50,[46],> 100 µM
same,TGI,[46],> 100 µM
same,GI50,[47],91.3 µM
same,TGI,[47],> 100 µM
same,GI50,[48],50.7 µM
same,TGI,[48],> 100 µM
same,GI50,[49],> 100 µM
same,TGI,[49],> 100 µM
same,GI50,[50],> 100 µM
same,TGI,[50],> 100 µM
Cc1cc2c(cc1Cl)SC(NNC(=O)c1ccccc1)=NS2(=O)=O,TGI,[1],> 10 µM
same,TGI,[51],> 10 µM
same,TGI,[2],> 10 µM
same,TGI,[3],> 10 µM
same,TGI,[4],> 10 µM
same,TGI,[5],> 10 µM
same,TGI,[6],> 10 µM
same,TGI,[7],> 10 µM
same,TGI,[52],> 10 µM
same,TGI,[8],> 10 µM
same,TGI,[9],> 10 µM
same,TGI,[10],> 10 µM
same,TGI,[11],> 10 µM
same,TGI,[12],> 10 µM
same,TGI,[53],> 10 µM
same,TGI,[54],> 10 µM
same,TGI,[14],> 10 µM
same,TGI,[15],> 10 µM
same,TGI,[16],> 10 µM
same,TGI,[17],> 10 µM
same,TGI,[18],> 10 µM
same,TGI,[55],> 10 µM
same,TGI,[56],> 10 µM
same,TGI,[19],5.76 µM
same,TGI,[20],> 10 µM
same,TGI,[21],> 10 µM
same,TGI,[22],> 10 µM
same,TGI,[57],> 10 µM
same,TGI,[23],> 10 µM
same,TGI,[24],> 10 µM
same,TGI,[25],> 10 µM
same,TGI,[26],> 10 µM
same,TGI,[27],> 10 µM
same,TGI,[28],> 10 µM
same,TGI,[29],> 10 µM
same,TGI,[30],> 10 µM
same,TGI,[31],> 10 µM
same,TGI,[32],> 10 µM
same,TGI,[33],> 10 µM
same,TGI,[34],> 10 µM
same,TGI,[35],> 10 µM
same,TGI,[36],> 10 µM
same,TGI,[37],> 10 µM
same,TGI,[38],> 10 µM
same,TGI,[39],> 10 µM
same,TGI,[40],> 10 µM
same,TGI,[41],> 10 µM
same,TGI,[42],> 10 µM
same,TGI,[43],> 10 µM
same,TGI,[45],> 10 µM
same,TGI,[46],> 10 µM
same,TGI,[58],> 10 µM
same,TGI,[47],> 10 µM
same,TGI,[48],> 10 µM
same,TGI,[49],> 10 µM
